# Test results from the Kinase Knowledgebase extract (Sharma et al. 2016).
# pIC50: −log10 of the molar value.
# Columns and labels:
# Assay in all cases: Enzyme Assay
# PIK3CG (human) = PIK3CG (human) (UniProt P48736)
# PIK3CB (Human) = PIK3CB (Human) (UniProt P42338)
# PIK3CD (Human) = PIK3CD (Human) (UniProt O00329)
# PIK3CA (human) = PIK3CA (human) (UniProt P42336)
# PIK3CA (human), sequence (P42336 whole entry, looked up): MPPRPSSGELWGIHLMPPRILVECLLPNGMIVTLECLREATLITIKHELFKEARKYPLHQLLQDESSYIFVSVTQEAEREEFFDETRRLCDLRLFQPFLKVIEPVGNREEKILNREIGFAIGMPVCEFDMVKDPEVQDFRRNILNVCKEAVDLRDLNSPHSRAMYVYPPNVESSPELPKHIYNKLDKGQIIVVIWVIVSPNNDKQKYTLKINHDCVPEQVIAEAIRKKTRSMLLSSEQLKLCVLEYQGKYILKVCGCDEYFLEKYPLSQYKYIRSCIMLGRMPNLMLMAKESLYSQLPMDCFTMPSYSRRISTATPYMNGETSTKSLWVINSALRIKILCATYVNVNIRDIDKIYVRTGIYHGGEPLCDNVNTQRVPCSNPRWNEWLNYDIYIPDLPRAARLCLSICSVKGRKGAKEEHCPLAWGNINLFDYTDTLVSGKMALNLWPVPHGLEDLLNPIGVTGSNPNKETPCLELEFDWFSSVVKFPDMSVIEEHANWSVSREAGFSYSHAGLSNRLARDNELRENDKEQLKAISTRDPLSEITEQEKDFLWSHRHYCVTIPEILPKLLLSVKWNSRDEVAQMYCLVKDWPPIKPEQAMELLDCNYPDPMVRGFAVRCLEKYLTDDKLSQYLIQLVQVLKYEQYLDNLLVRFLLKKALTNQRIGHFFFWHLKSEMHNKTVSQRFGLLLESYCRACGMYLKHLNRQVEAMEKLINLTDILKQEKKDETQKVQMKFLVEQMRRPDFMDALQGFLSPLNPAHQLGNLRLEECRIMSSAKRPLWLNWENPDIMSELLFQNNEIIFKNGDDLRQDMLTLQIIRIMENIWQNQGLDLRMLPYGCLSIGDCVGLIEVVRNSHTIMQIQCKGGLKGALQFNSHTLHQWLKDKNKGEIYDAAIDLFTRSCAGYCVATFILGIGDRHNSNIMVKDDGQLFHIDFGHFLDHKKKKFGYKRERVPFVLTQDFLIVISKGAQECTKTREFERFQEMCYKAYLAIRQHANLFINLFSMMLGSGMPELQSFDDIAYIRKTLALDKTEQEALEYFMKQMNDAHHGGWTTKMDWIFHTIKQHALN
# PIK3CG (human), sequence (P48736 whole entry, looked up): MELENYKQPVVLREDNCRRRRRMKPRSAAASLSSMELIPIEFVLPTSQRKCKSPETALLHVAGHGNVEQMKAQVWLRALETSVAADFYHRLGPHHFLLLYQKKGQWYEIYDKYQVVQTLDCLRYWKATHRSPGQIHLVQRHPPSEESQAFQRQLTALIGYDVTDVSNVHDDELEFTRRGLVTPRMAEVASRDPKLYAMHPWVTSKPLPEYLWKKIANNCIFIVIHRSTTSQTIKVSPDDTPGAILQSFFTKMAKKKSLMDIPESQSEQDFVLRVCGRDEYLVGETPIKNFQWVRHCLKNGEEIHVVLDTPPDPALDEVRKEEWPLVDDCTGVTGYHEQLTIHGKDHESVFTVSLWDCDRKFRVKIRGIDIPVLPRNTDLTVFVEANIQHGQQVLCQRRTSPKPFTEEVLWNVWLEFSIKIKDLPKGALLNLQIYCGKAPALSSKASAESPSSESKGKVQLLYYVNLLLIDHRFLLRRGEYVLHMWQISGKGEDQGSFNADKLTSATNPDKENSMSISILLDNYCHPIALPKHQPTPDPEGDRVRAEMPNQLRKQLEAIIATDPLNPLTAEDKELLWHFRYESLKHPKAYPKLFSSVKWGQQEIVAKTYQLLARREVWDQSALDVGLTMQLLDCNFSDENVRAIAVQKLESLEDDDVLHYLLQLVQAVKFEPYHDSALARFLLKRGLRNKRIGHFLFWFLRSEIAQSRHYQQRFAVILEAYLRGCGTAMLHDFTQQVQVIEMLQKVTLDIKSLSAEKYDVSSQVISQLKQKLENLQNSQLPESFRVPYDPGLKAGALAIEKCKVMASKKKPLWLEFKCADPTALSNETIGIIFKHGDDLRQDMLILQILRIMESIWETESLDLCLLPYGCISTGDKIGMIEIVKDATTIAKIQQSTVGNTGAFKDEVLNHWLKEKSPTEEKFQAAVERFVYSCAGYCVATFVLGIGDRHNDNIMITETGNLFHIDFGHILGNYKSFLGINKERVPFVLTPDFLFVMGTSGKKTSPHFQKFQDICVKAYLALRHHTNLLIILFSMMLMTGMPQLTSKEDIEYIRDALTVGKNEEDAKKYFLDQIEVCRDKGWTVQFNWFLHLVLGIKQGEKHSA
# PIK3CB (Human), sequence (P42338 whole entry, looked up): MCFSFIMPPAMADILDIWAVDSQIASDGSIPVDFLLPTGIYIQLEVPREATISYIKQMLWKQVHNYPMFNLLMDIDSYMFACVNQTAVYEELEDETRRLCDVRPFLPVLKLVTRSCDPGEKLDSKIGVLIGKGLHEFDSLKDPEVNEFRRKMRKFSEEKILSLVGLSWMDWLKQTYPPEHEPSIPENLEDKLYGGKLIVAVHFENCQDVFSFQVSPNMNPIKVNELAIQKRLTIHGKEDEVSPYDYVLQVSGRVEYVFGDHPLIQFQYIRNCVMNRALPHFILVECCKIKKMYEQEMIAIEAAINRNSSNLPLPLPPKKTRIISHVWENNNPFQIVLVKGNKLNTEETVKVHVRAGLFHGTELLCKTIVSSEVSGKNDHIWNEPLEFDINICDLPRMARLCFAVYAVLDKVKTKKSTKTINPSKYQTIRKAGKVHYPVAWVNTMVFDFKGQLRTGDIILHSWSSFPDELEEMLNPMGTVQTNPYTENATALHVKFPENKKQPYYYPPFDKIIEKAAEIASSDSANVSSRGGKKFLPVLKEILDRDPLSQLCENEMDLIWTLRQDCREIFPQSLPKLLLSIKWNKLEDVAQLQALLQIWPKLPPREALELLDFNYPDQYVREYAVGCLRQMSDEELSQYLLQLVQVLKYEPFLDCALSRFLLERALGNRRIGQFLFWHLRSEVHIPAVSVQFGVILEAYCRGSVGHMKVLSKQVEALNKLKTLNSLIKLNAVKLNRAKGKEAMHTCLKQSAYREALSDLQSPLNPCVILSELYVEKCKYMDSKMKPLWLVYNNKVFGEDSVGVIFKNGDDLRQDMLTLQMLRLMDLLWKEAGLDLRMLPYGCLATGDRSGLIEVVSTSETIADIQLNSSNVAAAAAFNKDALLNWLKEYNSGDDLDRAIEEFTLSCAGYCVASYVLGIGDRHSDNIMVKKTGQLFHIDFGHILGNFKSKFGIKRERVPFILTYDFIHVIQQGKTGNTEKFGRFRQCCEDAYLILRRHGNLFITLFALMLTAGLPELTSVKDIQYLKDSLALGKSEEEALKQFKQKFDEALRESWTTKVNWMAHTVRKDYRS
# PIK3CD (Human), sequence (O00329 whole entry, looked up): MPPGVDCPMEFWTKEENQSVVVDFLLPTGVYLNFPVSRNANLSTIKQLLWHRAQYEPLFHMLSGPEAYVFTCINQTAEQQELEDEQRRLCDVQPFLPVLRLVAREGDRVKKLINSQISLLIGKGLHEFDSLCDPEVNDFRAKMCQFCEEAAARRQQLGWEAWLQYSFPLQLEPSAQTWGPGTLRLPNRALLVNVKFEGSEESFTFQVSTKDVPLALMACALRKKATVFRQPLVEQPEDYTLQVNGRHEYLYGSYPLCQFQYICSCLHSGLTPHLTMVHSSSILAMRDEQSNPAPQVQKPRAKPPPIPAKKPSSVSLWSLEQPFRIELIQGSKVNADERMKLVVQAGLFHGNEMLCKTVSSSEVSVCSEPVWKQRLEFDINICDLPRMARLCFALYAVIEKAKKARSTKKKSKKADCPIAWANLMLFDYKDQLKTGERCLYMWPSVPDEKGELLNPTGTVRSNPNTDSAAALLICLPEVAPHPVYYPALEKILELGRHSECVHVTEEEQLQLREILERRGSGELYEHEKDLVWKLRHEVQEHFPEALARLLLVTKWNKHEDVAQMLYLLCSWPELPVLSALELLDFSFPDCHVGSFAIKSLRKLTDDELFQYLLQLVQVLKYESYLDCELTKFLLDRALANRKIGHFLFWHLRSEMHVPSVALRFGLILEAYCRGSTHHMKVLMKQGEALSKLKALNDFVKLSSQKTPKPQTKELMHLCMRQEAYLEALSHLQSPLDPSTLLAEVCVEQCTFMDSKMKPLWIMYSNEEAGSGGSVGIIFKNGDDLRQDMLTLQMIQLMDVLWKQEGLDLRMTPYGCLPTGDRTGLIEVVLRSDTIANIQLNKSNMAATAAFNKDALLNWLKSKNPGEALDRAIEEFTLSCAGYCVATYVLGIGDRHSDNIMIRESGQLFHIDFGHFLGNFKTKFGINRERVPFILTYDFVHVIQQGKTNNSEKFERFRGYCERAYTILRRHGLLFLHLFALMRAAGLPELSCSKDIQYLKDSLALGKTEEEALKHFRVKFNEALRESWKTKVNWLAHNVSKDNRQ
structure (smiles),measurement,setting,value
CC(C)OCCN1c2nc(N3CCOCC3)cc(=O)n2CC[C@H]1C(F)(F)F,pIC50,PIK3CG (human),5.76
same,pIC50,PIK3CB (Human),6.63
same,pIC50,PIK3CD (Human),6.68
CC(C)OCCN1c2nc(N3CCOCC3)cc(=O)n2CC[C@@]1(C)C(F)(F)F,pIC50,PIK3CG (human),6.20
same,pIC50,PIK3CA (human),7.06
same,pIC50,PIK3CB (Human),7.47
same,pIC50,PIK3CD (Human),7.57
O=c1cc(N2CCOCC2)nc2n1CC[C@@H](C(F)(F)F)N2C[C@H](O)c1ccccc1,pIC50,PIK3CG (human),< 5.00
same,pIC50,PIK3CB (Human),6.00
CC1(C)CCn2c(nc(N3CCOCC3)cc2=O)N1C[C@@H](O)c1ccccc1,pIC50,PIK3CG (human),5.13
same,pIC50,PIK3CA (human),5.72
same,pIC50,PIK3CB (Human),5.34
same,pIC50,PIK3CD (Human),5.93
C[C@@H]1COCCN1c1cc(=O)n2c(n1)N(Cc1ccc(Cl)s1)[C@H](C(F)(F)F)CC2,pIC50,PIK3CA (human),5.54
same,pIC50,PIK3CD (Human),5.89
O=c1cc(N2CCOCC2)nc2n1CCC1(CC1)N2C[C@@H](O)c1ccccc1,pIC50,PIK3CG (human),5.53
same,pIC50,PIK3CA (human),6.03
same,pIC50,PIK3CB (Human),5.46
same,pIC50,PIK3CD (Human),6.22
O=c1cc(N2CCOCC2)nc2n1CC[C@@H](C(F)(F)F)N2c1ccccc1,pIC50,PIK3CG (human),5.72
same,pIC50,PIK3CB (Human),7.03
same,pIC50,PIK3CD (Human),7.21
O=c1cc(N2CCOCC2)nc2n1CC[C@@H](C(F)(F)F)N2Cc1ccc(Cl)s1,pIC50,PIK3CG (human),5.14
same,pIC50,PIK3CA (human),6.30
same,pIC50,PIK3CB (Human),6.66
same,pIC50,PIK3CD (Human),6.77
O=c1cc(N2CCOCC2)nc2n1CC[C@@H](C(F)(F)F)N2Cc1ccccc1,pIC50,PIK3CG (human),5.80
same,pIC50,PIK3CA (human),7.30
same,pIC50,PIK3CB (Human),7.00
same,pIC50,PIK3CD (Human),7.28
C[C@H]1COCCN1c1cc(=O)n2c(n1)N(Cc1ccc(Cl)s1)[C@H](C(F)(F)F)CC2,pIC50,PIK3CG (human),5.74
same,pIC50,PIK3CA (human),5.99
same,pIC50,PIK3CB (Human),6.19
same,pIC50,PIK3CD (Human),6.44
O=c1cc(N2CCOCC2)nc2n1CC[C@@H](C(F)(F)F)N2c1cc(F)cc(F)c1,pIC50,PIK3CG (human),5.45
same,pIC50,PIK3CB (Human),6.47
same,pIC50,PIK3CD (Human),6.57
O=c1cc(N2CC3CCC(C2)O3)nc2n1CC[C@@H](C(F)(F)F)N2Cc1ccc(Cl)s1,pIC50,PIK3CA (human),5.43
same,pIC50,PIK3CD (Human),5.42
CC(C)OCCN1c2nc(N3CCOCC3)cc(=O)n2CCC1(C)C,pIC50,PIK3CG (human),< 5.00
same,pIC50,PIK3CA (human),5.13
same,pIC50,PIK3CB (Human),< 5.00
same,pIC50,PIK3CD (Human),5.38
O=c1cc(N2CCOCC2)nc2n1CC[C@@H](C(F)(F)F)N2C[C@@H](O)c1ccccc1,pIC50,PIK3CG (human),7.82
same,pIC50,PIK3CB (Human),7.80
O=c1cc(N2CCOCC2)nc2n1CC[C@@H](C(F)(F)F)N2CCc1ccccc1,pIC50,PIK3CG (human),6.97
same,pIC50,PIK3CA (human),7.77
same,pIC50,PIK3CB (Human),7.44
same,pIC50,PIK3CD (Human),7.85
